US11633392B2 (priority 2016, dated 2023)
Marks after values point to notes of the source that are not given here.

Experiments:
Metabolic stability test = type: in vitro ADME; settings: liver microsomes; human hepatic microsomes, 0 to 60 minutes; read-out: metabolic clearance CLint
Procedure: Human hepatic microsomes and a test substance were reacted for a certain period of time (0 to 60 minutes). The test substance, which was not metabolized in the reaction sample, was measured, and remaining ratio was calculated. The test substance-remaining ratio at the time when the reaction time is 0 hour is taken as 100%. The remaining ratio after incubation was plotted against time as a log-linear plot to obtain a regression line (y=100 e^−kt, k=inclination of straight line: clearance rate constant), and metabolic clearance CLint (mL/min/kg) was calculated by using the following equation. CLint*=k(−min)×52.5(mg MS protein/g liver)×26(g liver/kg)/MS protein (mg MS protein/mL) • *: Davies, B. and Morris T., Physiological parameters in laboratory animals and humans, Pharm. Res., 10(7)1093-1095, 1993 (Test Results)

Wistar male rats = assay: Rat elevated plus maze test; type: in vivo; settings: oral, 3 mg/kg, 2 hours before test (FIG. 6)
Procedure: Rat Elevated Plus Maze Test
Anxiolytic effects of the compounds provided by the present invention were investigated by the rat elevated plus maze test.
For the test, 7 to 9 weeks old Wistar male rats were used. […] Each test substance was dissolved in a 4.5% aqueous solution of cyclodextrin, and orally administered 2 hours before the start of the test. The test data were automatically analyzed by using video image action analysis software (Smart3.0, PanLab S.L., PanLab), and wall-less running route staying time ratio (%) was calculated.

C57BL/6N male mice = assay: Mouse elevated plus maze test; type: in vivo; settings: subcutaneous, 1 mg/kg, 30 minutes before test (FIG. 2)
Procedure: Mouse Elevated Plus Maze Test
For the test, 5 to 6 weeks old C57BL/6N male mice were used. On a plus maze apparatus consisting of a wall-less running route (open arm, width 6 cm, length 30 cm) and a running route with a wall (closed arm, width 6 cm, length 30 cm, height of wall 15 cm), and having a height of 40 cm, a mouse was put so as to be directed to the running route with a wall, and allowed to spontaneously enter into the plus maze. Each test substance was dissolved in saline or 0.005 N HCl in saline, and subcutaneously administered on the back 30 minutes before the start of the test. At the time of the start of the test, video recording with a video camera was started, the time at which the mouse entered into the plus maze is considered to be the start of the test, and exploratory behavior was recorded for 5 minutes. On the basis of the video image, staying times in the running routes were determined, and wall-less running route staying time ratio (%) was calculated.

hERG potassium channel = target: T1, hERG potassium channel (Homo sapiens, UniProt Q12809); assay: hERG potassium channel inhibition test (automatic patch clamp); type: cell-based; settings: pH 7.4, hERG-expressing CHO cells, tail current, read-out: hERG channel inhibitory action
T1 construct: host or cells: CHO cells
T1 sequence (Q12809 whole entry): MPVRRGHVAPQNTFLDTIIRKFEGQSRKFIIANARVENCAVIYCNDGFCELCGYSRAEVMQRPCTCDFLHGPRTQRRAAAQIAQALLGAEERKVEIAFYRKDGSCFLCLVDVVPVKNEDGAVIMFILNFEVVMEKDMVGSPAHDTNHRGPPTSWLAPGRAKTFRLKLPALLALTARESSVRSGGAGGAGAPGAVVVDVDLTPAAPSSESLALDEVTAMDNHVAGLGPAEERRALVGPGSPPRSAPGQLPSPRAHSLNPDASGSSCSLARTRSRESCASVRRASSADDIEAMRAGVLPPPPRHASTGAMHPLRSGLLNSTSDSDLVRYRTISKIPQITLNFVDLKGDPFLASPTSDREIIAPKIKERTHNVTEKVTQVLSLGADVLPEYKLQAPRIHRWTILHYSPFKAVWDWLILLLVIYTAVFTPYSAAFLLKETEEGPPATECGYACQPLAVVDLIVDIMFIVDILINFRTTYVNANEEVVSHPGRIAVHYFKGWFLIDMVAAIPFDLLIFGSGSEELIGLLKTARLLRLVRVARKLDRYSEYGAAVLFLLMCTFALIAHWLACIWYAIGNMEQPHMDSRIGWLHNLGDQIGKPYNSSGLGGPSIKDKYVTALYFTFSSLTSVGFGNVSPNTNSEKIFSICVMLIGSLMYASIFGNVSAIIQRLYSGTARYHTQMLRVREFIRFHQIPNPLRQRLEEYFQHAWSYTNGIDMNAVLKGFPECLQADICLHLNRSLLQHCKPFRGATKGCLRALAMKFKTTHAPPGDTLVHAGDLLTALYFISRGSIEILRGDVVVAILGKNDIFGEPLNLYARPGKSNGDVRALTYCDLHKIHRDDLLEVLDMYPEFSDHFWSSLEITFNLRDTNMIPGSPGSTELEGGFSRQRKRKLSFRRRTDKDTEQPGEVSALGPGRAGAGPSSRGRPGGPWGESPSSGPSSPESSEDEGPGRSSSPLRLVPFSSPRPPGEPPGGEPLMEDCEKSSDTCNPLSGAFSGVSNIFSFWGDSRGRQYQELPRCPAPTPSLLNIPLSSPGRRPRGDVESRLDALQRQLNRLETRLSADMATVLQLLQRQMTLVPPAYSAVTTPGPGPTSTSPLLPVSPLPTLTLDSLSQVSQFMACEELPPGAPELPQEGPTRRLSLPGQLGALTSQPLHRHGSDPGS
Procedure: hERG (Human Ether-A-Go-Go-Related Gene) Potassium Channel Inhibition Test
The test was performed with Port-a-Patch automatic patch clump apparatus (Nanion Technologies) using hERG channel-stably expressing CHO cells (purchased from Channelopathy Foundation). The membrane potential of the cells was maintained at −80 mV, then there were applied a depolarization pulse at +20 mV for 1.5 seconds, and a following test pulse at −50 mV for 1.5 seconds at a frequency of 1 time per 10 seconds, and the hERG current was confirmed as a tail current induced by the test pulse. The test compound was dissolved in an extracellular fluid (137 mM NaCl, 4 mM KCl, 1.8 mM CaCl2, 1 mM MgCl2, 10 mM D(+)-glucose, 10 mM HEPES, pH 7.4), and the solution was refluxed at room temperature for 5 minutes. The inhibition ratio was obtained from the ratio of the tail current value observed after the compound was applied based on the tail current value observed before the compound was applied, which was taken as 100%.

human opioid κ receptor = target: T2, human opioid κ receptor (Homo sapiens, UniProt P41145); assay: Opioid receptor function test (Lance Ultra cAMP Kit), κ receptor; type: cell-based; settings: maximum reaction not reached; maximum concentration 10 μM; U-69593 = 100%
T2 construct: host or cells: CHO cells
T2 sequence (P41145 whole entry): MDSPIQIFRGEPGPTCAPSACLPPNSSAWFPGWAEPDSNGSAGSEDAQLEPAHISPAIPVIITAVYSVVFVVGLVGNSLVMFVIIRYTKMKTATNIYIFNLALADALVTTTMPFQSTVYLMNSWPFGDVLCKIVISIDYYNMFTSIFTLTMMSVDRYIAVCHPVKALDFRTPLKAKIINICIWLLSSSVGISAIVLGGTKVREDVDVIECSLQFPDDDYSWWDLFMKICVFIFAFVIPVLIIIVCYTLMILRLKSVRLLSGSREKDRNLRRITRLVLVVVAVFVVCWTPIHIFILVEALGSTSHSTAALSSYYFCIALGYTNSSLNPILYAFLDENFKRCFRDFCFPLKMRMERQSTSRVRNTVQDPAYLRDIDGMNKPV
Procedure: Opioid Receptor Function Test
The functional activities of the compounds provided by the present invention on the μ, δ, and κ opioid receptors were investigated.
The test was performed by using Lance Ultra cAMP Kit (PerkinElmer) according to a method predetermined for the kit. In the evaluation of the agonistic activity, CHO cells expressing each of the human opioid receptors (δ, μ, and κ, accession numbers and catalog numbers are mentioned below) and 10 μM of each test compound were reacted for 30 minutes in an assay buffer (1× HBSS, […], pH 7.4, […] (isobutylmethylxanthine), 7.5% BSA) in the presence of forskolin. Subsequently, the cAMP detection reagent included in the kit was added, and 1 hour afterward, time-resolved fluorescence measurement was performed by using the EnVision plate reader (PerkinElmer). The test compounds and the control drugs (δ: SNC80, μ: DAMGO, κ: U-69593) were evaluated in a concentration range of 10^−12 to 10^−5 M, a dose-response curve of each test compound was obtained from the fluorescence values at 665 nm, and EC50 value and the Emax value were calculated. The Emax value was calculated as a ratio of the maximum reaction of the test compound to the maximum reaction of each control drug, which is taken as 100%.
• δ: Catalog No. CT4607, Accession No. NM_000911.2 • μ: Catalog No. CT4605, Accession No. NM_000914 • κ: Catalog No. CT4606, Accession No. NM_000912 (ChanTest Corporation)

SD male rats = assay: Rat cerebral infarction-induced overactive bladder model (cystometry); type: in vivo; settings: for Pressure at the time of urination / Single urination amount / Static pressure / Urination interval: cumulative, Mean ± S.E. (n = 5)
Procedure: Evaluation Using Rat Cerebral Infarction-Induced Overactive Bladder Model
A transient middle cerebral artery occlusion model was prepared by using 8 weeks old SD male rats under isoflurane inhalation anesthesia. On the next day, the cervix was slightly cut open again under the isoflurane inhalation anesthesia, and a catheter for administration was fixed in the jugular vein, and led to the back. A cystometry operation was also performed, and the other end of a cannula inserted into the bladder was led to the back, and connected to a cannula swivel.
On the day 4 after the cerebral ischemia operation, cystometry was performed under no anesthesia and with no restraint. Intravesical pressure was measured for the stable period, then a medium was intravenously administered, and the value of the pressure was measured over about 30 minutes as a value before test substance administration. Then, the test substance was cumulatively and intravenously administered from the lowest dose at intervals of about 30 minutes, and the value was measured for about 30 minutes after each administration. For the rats determined to show pollakiuria (urination interval was 10 minutes or shorter) in the measurement before the administration, static intravesical pressure, pressure at the time of urination, urination interval, and single urination amount were measured at each time point.

Compound: O=C(c1cccc(=O)[nH]1)N1C[C@H]2C[C@@]34CC[C@@H]1[C@@H]2[C@@]31CCN(CC2CC2)[C@@H]4Cc2ccc(O)cc21 [Example 7, 6-((1S,3aR,5aS,6R,11bR,11cS)-14-(cyclopropylmethyl)-10-hydroxy-2,3,3a,4,5,6,7,11c-octahydro-1H-6,11b-(epiminoethano)-1,5a-methanonaphtho[1,2-e]indole-3-carbonyl)pyridin-2(1H)-one]
- CLint scaled (Metabolic stability test): 5.6 mL/min/kg
- wall-less running route staying time ratio (Wistar male rats): significantly increased
- wall-less running route staying time ratio (C57BL/6N male mice): significantly increased
- inhibition at 5 min, 10 µM (hERG potassium channel): < 50%
- κ receptor reaction rate at the maximum concentration (reference value, marked *) (human opioid κ receptor): −0.9* %
- Pressure at the time of urination (SD male rats; 0.01 mg/kg intravenous): 42.9 ± 10.7 mmHg
- Single urination amount (SD male rats; 0.01 mg/kg intravenous): 0.310 ± 0.068 g
- Static pressure (SD male rats; 0.01 mg/kg intravenous): 9.5 ± 1.3 mmHg
- Urination interval (SD male rats; 0.01 mg/kg intravenous): 450.7 ± 76.9 s
- Pressure at the time of urination (SD male rats; 0.1 mg/kg intravenous): 42.8 ± 9.7 mmHg
- Single urination amount (SD male rats; 0.1 mg/kg intravenous): 0.403 ± 0.129 g
- Static pressure (SD male rats; 0.1 mg/kg intravenous): 9.6 ± 1.1 mmHg
- Urination interval (SD male rats; 0.1 mg/kg intravenous): 547.4 ± 122.5 s
- effect on single urination amount (in words) (SD male rats; 0.01 and 0.1 mg/kg intravenous): dose-dependently increasing tendency
- effect on urination interval (in words) (SD male rats; 0.01 and 0.1 mg/kg intravenous): dose-dependently increasing tendency
- effect on pressure at the time of urination (in words) (SD male rats; all the doses): did not affect
- effect on static intravesical pressure (in words) (SD male rats; all the doses): did not affect
